Assay: Concentration of rapamycin in the vitreous of rabbit eyes after intravitreal injection of the self-emulsifying formulation (LCMS)
Type: in vivo, New Zealand white rabbits
Details: full vitreous homogenized, average of four eyes
Description: 50 μl of the formulation described in Example 1 were injected into the vitreous of the eye of New Zealand white rabbits. The full vitreous, which included the area into which the self-emulsifying formulation was injected, was homogenized and analyzed at 1, 5, 24, 72 and 168 hours for the concentration of rapamycin remaining therein. The average concentration of the vitreous was calculated by dividing the mass of rapamycin measured by the volume of vitreous analyzed. The analysis was by liquid chromatography mass spectroscopy (LCMS). Each timepoint represents the average of two eyes of each of two rabbits (four eyes at each timepoint).
The average concentration of rapamycin at 1, 5, 24, 72 and 168 hours was about 347, about 401, about 273, about 18, and about 1 μg/μl, respectively.

SMILES: CO[C@H]1C[C@@H]2CC[C@@H](C)[C@@](O)(O2)C(=O)C(=O)N2CCCC[C@H]2C(=O)O[C@H]([C@H](C)C[C@@H]2CC[C@@H](O)[C@H](OC)C2)CC(=O)[C@H](C)/C=C(\C)[C@@H](O)[C@@H](OC)C(=O)[C@H](C)C[C@H](C)/C=C/C=C/C=C/1C [rapamycin]
- average concentration of rapamycin in the vitreous (1 hour after injection of 50 μl of the Example 1 formulation into the vitreous): about 347 μg/μl
- average concentration of rapamycin in the vitreous (5 hours after injection of 50 μl of the Example 1 formulation into the vitreous): about 401 μg/μl
- average concentration of rapamycin in the vitreous (24 hours after injection of 50 μl of the Example 1 formulation into the vitreous): about 273 μg/μl
- average concentration of rapamycin in the vitreous (72 hours after injection of 50 μl of the Example 1 formulation into the vitreous): about 18 μg/μl
- concentration at 168 h (New Zealand white, rabbit, vitreous (full vitreous homogenate), other: intravitreal injection, 168 hours after injection of 50 μl of the Example 1 formulation into the vitreous): ~1000 µg/mL

From US20060182771A1, “Formulations for ocular treatment” (priority 2005, published 2006)
